Results reported in patent US20210113522A1, “COUMARIN DERIVATIVE AS ANTI-ASTHMATIC AGENT, PHARMACEUTICAL COMPOSITION THEREOF, ITS PREPARATION AND USE” (I-NOVA MEDICINSKA ISTRAZIVANJA D.O.O., priority 2017, published 2021).

System: croton oil-induced ear edema
Test: Croton oil-induced ear edema in mice
Assay type: in vivo, Balb/c mice
Conditions: dexamethasone 1 mg/kg, 1 2 mg/kg
Text: The presents study aims to detect the inflammatory/anti-inflammatory potential effects of compound 1 in a model of acute skin inflammation induced by local application of phlogistic agent croton oil in Balb/c mice. The technique for croton oil-induced ear edema in mice, originally described by Tubaro et al., was followed, with modifications; see literature references 16 and 17: • 16) A. Tubaro, P. Dri, G. Delbello, C. Zilli, R. Della Loggia: The croton oil ear test revisited, Agents Actions 17 (1986) 347-349. • 17) G. Coruzzi, C. Pozzoli, M. Adami, D. Grandi, N. Guido, R. Smits, I. de Esch and R. Leurs: Strain-dependent effects of the histamine H4 receptor antagonist JNJ7777120 in a murine model of acute skin inflammation, Experimental Dermatology 21 (2011) 32-37.
Mice (total 40) were separated into 4 groups (n=10). Each group was treated under different regimen:
Cutaneous inflammation was induced in conscious mice by topical application of croton oil (5% in acetone).
Six hours after croton oil application, mice were euthanized by light ether anaesthesia, followed by cervical dislocation; both left (acetone) and right (croton oil in acetone) ears were removed, by cutting horizontally across the indentation at the base of the ear. For each mouse, the extent of the oedema was expressed as the difference in weight (Δ [mg]) between right (inflamed) and left (uninflamed) ear. The percentage increase in the oedema of the treated ear was calculated by the following formula: […]
The presents study aims to detect the inflammatory/anti-inflammatory potential effects of compound 1 in a model of acute skin inflammation induced by local application of phlogistic agent croton oil in Balb/c mice. The technique for croton oil-induced ear edema in mice, originally described by Tubaro et al., was followed, with modifications; see literature references 16 and 17.
In preliminary experiments, the effect of subcutaneous (s.c.) administration of saline, 100% DMSO or 20% 2-hydroxypropyl-β-cyclodextrin was investigated to check the vehicle effects on ear inflammation.
The statistical significance between the groups was assessed by one-way analysis of variance (ANOVA) followed by a post hoc Tukey test. The accepted level of significance for the test was P<0.05. All tests were carried out using GraphPad Software (San Diego, Calif., USA).

C[C@@H]1C[C@H]2[C@@H]3CCC4=CC(=O)C=C[C@]4(C)[C@@]3(F)[C@@H](O)C[C@]2(C)[C@@]1(O)C(=O)CO [dexamethasone, reference compound]
Percentage of increasing the ear edema (6 h after croton oil): 44.2%
Maximal inhibition of croton oil-induced ear oedema (Balb/c mice, 6 h): approximately 60%
Left ear m (left ear: 80% 2HPβCD + 20% DMSO (uninflamed), 6 h): 0.0360 g
Right ear m (right ear: substance + croton oil after 30 min, 6 h): 0.0519 g
